{"source": "paper PMC7265341", "about": "“Quantifying CDK inhibitor selectivity in live cells” (Nature Communications, 2020)", "key": {"[1]": {"target": "CDK11B/Cyclin L2 (Homo sapiens, UniProt P21127)", "experiment": "NanoBRET live-cell target engagement, CDK11B-NanoLuc/Cyclin L2 in HEK-293", "type": "binding", "conditions": "for inhibition at 10 µM: read-out: CDK11b/L2 Inhibition at 10µM (%); for IC50: read-out: CDK11b/L2 IC50"}, "[2]": {"target": "CDK12/Cyclin K (Homo sapiens, UniProt Q9NYV4)", "sequence (Q9NYV4 1-1481 isoform Q9NYV4-2)": "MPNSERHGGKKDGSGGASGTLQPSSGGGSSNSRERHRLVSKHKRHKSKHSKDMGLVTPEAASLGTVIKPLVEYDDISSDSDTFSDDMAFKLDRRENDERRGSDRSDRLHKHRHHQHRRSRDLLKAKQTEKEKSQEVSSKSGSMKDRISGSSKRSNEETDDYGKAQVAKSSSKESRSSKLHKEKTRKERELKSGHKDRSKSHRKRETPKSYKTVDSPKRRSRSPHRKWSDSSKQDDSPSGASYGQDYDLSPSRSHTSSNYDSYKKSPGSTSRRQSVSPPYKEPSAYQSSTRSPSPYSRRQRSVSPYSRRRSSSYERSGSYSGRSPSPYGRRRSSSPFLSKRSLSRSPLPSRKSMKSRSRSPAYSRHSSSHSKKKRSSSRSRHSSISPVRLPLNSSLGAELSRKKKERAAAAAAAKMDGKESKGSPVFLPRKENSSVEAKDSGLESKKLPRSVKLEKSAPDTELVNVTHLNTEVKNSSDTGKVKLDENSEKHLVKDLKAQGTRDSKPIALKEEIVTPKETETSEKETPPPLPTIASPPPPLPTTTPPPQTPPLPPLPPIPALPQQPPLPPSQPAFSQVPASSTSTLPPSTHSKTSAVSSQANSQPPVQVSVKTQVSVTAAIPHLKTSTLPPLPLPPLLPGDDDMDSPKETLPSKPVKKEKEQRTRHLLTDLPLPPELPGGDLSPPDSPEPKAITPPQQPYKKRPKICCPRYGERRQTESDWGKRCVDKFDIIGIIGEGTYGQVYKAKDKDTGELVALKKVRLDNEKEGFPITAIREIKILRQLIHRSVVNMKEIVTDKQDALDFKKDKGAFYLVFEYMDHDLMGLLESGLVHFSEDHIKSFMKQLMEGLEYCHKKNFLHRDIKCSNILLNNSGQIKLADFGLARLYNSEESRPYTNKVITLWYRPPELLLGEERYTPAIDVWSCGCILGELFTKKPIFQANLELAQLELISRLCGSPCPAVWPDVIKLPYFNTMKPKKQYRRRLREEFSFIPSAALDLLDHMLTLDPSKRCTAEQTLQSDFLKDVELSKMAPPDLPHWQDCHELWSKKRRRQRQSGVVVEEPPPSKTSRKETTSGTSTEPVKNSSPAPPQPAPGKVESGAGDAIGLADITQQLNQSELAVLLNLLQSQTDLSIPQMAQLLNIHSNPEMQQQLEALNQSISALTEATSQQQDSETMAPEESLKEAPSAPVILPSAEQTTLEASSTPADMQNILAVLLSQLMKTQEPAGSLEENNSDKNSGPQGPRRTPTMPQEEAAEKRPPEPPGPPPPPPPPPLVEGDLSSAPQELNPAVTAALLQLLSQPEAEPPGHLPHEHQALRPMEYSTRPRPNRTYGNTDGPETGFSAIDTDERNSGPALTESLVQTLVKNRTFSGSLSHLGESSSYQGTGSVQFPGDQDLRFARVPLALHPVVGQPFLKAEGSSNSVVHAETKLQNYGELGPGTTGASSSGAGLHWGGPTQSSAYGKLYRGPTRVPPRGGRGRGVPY", "sequence (O75909 whole entry partner)": "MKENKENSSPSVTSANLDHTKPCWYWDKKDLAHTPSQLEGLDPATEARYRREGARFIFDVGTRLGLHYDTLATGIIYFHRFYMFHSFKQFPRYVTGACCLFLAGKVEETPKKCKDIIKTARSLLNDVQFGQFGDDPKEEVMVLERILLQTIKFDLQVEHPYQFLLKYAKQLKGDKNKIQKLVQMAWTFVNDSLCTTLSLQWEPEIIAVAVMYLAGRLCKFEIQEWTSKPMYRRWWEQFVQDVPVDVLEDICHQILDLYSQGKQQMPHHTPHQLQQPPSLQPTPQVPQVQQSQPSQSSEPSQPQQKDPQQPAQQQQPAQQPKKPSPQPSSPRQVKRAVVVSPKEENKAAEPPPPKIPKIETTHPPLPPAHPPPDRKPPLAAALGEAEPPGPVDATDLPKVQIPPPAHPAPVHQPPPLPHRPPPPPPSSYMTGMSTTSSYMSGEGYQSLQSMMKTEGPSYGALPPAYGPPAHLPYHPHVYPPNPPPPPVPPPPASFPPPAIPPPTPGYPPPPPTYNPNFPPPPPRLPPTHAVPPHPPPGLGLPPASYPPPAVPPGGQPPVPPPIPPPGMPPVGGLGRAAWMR", "experiment": "NanoBRET live-cell target engagement, CDK12-NanoLuc/Cyclin K in HEK-293", "type": "binding", "conditions": "for inhibition at 10 µM: read-out: CDK12/K Inhibition at 10µM (%); for IC50: read-out: CDK12/K IC50"}, "[3]": {"target": "CDK13/Cyclin K (Homo sapiens, UniProt Q14004)", "sequence (O75909 whole entry)": "as the sequence (O75909 whole entry partner) above", "sequence (Q14004 other isoform, or with tags, fused parts or gaps)": "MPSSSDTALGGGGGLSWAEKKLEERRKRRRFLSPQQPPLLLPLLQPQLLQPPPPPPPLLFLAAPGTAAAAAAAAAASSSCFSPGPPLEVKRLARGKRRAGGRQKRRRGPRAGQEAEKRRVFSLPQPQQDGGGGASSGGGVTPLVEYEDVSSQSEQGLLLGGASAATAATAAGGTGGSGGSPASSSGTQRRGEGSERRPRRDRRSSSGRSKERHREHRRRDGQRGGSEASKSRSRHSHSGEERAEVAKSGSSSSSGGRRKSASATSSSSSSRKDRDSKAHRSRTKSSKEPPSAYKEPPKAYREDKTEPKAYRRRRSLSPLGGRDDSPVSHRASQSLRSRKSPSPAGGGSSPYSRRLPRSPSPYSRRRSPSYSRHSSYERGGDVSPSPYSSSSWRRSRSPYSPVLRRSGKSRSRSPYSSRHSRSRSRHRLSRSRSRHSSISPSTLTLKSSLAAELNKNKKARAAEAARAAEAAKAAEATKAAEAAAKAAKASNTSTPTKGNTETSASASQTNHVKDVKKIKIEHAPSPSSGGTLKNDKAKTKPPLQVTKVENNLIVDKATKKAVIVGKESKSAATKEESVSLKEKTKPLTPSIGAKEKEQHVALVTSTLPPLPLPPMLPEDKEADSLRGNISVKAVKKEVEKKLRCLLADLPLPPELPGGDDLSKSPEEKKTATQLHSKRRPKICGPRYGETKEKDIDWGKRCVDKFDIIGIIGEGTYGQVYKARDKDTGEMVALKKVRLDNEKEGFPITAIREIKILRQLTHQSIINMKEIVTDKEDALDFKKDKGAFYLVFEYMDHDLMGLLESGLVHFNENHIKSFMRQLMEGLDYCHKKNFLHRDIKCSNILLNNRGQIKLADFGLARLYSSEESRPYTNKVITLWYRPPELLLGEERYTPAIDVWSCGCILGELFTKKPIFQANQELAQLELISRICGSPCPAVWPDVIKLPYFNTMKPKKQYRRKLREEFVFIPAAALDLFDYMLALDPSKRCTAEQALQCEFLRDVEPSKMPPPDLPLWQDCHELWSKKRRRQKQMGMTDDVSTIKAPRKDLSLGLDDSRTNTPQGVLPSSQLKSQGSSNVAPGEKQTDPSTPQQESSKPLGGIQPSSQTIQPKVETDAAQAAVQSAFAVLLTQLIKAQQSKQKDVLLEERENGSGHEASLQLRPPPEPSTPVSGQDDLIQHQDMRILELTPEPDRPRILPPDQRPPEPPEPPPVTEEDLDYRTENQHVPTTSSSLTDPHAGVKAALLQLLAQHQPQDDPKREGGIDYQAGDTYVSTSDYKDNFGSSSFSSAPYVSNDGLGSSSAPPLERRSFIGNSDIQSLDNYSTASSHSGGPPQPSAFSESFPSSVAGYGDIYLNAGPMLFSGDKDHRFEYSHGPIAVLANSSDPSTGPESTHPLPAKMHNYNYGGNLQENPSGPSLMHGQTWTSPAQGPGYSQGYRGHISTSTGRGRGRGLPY", "experiment": "NanoBRET live-cell target engagement, CDK13-NanoLuc/Cyclin K in HEK-293", "type": "binding", "conditions": "10µM, read-out: CDK13/K Inhibition at 10µM (%)"}, "[4]": {"target": "CDK14/Cyclin Y (Homo sapiens, UniProt O94921)", "experiment": "NanoBRET live-cell target engagement, CDK14-NanoLuc/Cyclin Y in HEK-293", "type": "binding", "conditions": "for inhibition at 10 µM: read-out: CDK14/Y Inhibition at 10µM (%)"}, "[5]": {"target": "CDK15/Cyclin Y (Homo sapiens, UniProt Q96Q40)", "experiment": "NanoBRET live-cell target engagement, NanoLuc-CDK15/Cyclin Y in HEK-293", "type": "binding", "conditions": "for inhibition at 10 µM: read-out: CDK15/Y Inhibition at 10µM (%); for IC50: read-out: CDK15/Y IC50"}, "[6]": {"target": "CDK16/Cyclin Y (Homo sapiens, UniProt Q00536)", "experiment": "NanoBRET live-cell target engagement, CDK16-NanoLuc/Cyclin Y in HEK-293", "type": "binding", "conditions": "10µM, read-out: CDK16/Y Inhibition at 10µM (%)"}, "[7]": {"target": "CDK17/Cyclin Y (Homo sapiens, UniProt Q00537)", "experiment": "NanoBRET live-cell target engagement, CDK17-NanoLuc/Cyclin Y in HEK-293", "type": "binding", "conditions": "for inhibition at 10 µM: read-out: CDK17/Y Inhibition at 10µM (%); for IC50: read-out: CDK17/Y IC50"}, "[8]": {"target": "CDK20/Cyclin H (Homo sapiens, UniProt Q8IZL9)", "experiment": "NanoBRET live-cell target engagement, NanoLuc-CDK20/Cyclin H in HEK-293", "type": "binding", "conditions": "10µM, read-out: CDK20/H Inhibition at 10µM (%)"}, "[9]": {"target": "CDK19/Cyclin C (Homo sapiens, UniProt Q9BWU1)", "sequence (Q9BWU1 whole entry)": "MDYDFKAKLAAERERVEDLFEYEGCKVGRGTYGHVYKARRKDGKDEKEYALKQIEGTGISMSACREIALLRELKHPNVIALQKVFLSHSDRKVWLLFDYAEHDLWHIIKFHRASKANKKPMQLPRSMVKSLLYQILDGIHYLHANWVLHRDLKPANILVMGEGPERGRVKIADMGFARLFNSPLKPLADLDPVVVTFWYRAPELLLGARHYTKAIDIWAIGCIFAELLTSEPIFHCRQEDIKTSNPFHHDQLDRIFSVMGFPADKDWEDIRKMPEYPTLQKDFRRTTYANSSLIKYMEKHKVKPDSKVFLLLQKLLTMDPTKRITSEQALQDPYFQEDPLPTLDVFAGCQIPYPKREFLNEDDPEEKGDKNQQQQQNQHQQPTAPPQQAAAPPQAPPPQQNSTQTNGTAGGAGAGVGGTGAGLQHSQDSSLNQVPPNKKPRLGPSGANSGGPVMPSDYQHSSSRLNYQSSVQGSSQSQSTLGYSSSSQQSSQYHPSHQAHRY", "sequence (P24863 whole entry partner)": "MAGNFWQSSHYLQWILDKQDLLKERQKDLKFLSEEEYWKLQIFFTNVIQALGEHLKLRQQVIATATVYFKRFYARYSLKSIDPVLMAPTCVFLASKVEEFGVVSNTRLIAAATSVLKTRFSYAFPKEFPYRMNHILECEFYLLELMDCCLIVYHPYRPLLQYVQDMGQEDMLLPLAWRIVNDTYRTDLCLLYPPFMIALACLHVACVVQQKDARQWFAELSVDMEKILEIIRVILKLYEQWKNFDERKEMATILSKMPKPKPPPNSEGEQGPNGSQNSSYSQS", "experiment": "NanoBRET live-cell target engagement, NanoLuc-CDK19/Cyclin C in HEK-293", "conditions": "read-out: CDK19/C Inhibition at 10µM (%), 10µM"}, "[10]": {"target": "CDK10/Cyclin L2 (Homo sapiens, UniProt Q15131)", "sequence (Q15131 whole entry)": "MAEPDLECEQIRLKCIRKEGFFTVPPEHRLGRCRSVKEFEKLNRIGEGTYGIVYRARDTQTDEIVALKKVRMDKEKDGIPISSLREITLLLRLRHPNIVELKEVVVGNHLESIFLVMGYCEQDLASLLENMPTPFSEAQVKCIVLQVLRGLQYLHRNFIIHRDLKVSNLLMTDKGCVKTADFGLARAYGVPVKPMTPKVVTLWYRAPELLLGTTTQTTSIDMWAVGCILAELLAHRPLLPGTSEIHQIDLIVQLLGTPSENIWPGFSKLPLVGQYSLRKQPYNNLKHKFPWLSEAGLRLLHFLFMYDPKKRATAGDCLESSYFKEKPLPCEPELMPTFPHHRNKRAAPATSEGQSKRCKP", "experiment": "NanoBRET live-cell target engagement, CDK10-NanoLuc/Cyclin L2 in HEK-293", "conditions": "for inhibition at 10 µM: read-out: CDK10/L2 Inhibition at 10µM (%), 10µM"}}, "note": "Where two headings read alike, the source gives them in different places.", "data": [{"smiles": "CN1C/C=C/CCOc2cccc(c2)-c2ccnc(n2)Nc2cccc(c2)C1", "note": "[SB1317]", "values": [{"measurement": "inhibition at 10 µM", "setting": "[1]; average of experiments", "value": 94.9, "unit": "%"}, {"measurement": "inhibition at 10 µM", "setting": "[1]; independent experiment 1", "value": 95.5, "unit": "%"}, {"measurement": "inhibition at 10 µM", "setting": "[1]; independent experiment 2", "value": 94.4, "unit": "%"}, {"measurement": "IC50", "setting": "[1]; average (± SEM where n=3)", "value": 51, "unit": "nM"}, {"measurement": "IC50", "setting": "[1]; independent experiment 1", "value": 49, "unit": "nM"}, {"measurement": "IC50", "setting": "[1]; independent experiment 2", "value": 54, "unit": "nM"}, {"measurement": "inhibition at 10 µM", "setting": "[2]; average of experiments", "value": 60.9, "unit": "%"}, {"measurement": "inhibition at 10 µM", "setting": "[2]; independent experiment 1", "value": 45.8, "unit": "%"}, {"measurement": "inhibition at 10 µM", "setting": "[2]; independent experiment 2", "value": 76, "unit": "%"}, {"measurement": "IC50", "setting": "[2]; average (n=2)", "value": 680, "unit": "nM"}, {"measurement": "IC50", "setting": "[2]; independent experiment 1", "value": 610, "unit": "nM"}, {"measurement": "IC50", "setting": "[2]; independent experiment 2", "value": 750, "unit": "nM"}, {"measurement": "inhibition at 10 µM", "setting": "[3]; average of experiments", "value": 63.7, "unit": "%"}, {"measurement": "inhibition at 10 µM", "setting": "[3]; independent experiment 1", "value": 47.7, "unit": "%"}, {"measurement": "inhibition at 10 µM", "setting": "[3]; independent experiment 2", "value": 79.6, "unit": "%"}, {"measurement": "inhibition at 10 µM", "setting": "[4]; average of experiments", "value": 97.2, "unit": "%"}, {"measurement": "inhibition at 10 µM", "setting": "[4]; independent experiment 1", "value": 96, "unit": "%"}, {"measurement": "inhibition at 10 µM", "setting": "[4]; independent experiment 2", "value": 98.5, "unit": "%"}, {"measurement": "IC50", "setting": "[4]; average (± SEM where n=3), read-out: CDK14/Y IC50", "value": 29, "unit": "nM"}, {"measurement": "IC50", "setting": "[4]; independent experiment 1, read-out: CDK14/Y IC50", "value": 28, "unit": "nM"}, {"measurement": "IC50", "setting": "[4]; independent experiment 2, read-out: CDK14/Y IC50", "value": 29, "unit": "nM"}, {"measurement": "IC50", "setting": "[4]; live HEK-293, 2 h, mean ± S.E.M. (n=3) or mean (n=2), read-out: IC50 for CDK/cyclin complexes, CDK14/Y", "value": 29, "unit": "nM"}, {"measurement": "inhibition at 10 µM", "setting": "[5]; average of experiments", "value": 98.1, "unit": "%"}, {"measurement": "inhibition at 10 µM", "setting": "[5]; independent experiment 1", "value": 97.4, "unit": "%"}, {"measurement": "inhibition at 10 µM", "setting": "[5]; independent experiment 2", "value": 98.7, "unit": "%"}, {"measurement": "IC50", "setting": "[5]; average (± SEM where n=3)", "value": 58, "unit": "nM"}, {"measurement": "IC50", "setting": "[5]; independent experiment 1", "value": 55, "unit": "nM"}, {"measurement": "IC50", "setting": "[5]; independent experiment 2", "value": 61, "unit": "nM"}, {"measurement": "inhibition at 10 µM", "setting": "[6]; independent experiment 1", "value": 96.3, "unit": "%"}, {"measurement": "inhibition at 10 µM", "setting": "[6]; independent experiment 2", "value": 92.9, "unit": "%"}, {"measurement": "inhibition at 10 µM", "setting": "[7]; average of experiments", "value": 94.8, "unit": "%"}, {"measurement": "inhibition at 10 µM", "setting": "[7]; independent experiment 1", "value": 96.6, "unit": "%"}, {"measurement": "inhibition at 10 µM", "setting": "[7]; independent experiment 2", "value": 93.1, "unit": "%"}, {"measurement": "IC50", "setting": "[7]; average (± SEM where n=3)", "value": 49, "unit": "nM"}, {"measurement": "IC50", "setting": "[7]; independent experiment 1", "value": 50, "unit": "nM"}, {"measurement": "IC50", "setting": "[7]; independent experiment 2", "value": 47, "unit": "nM"}, {"measurement": "inhibition at 10 µM", "setting": "[8]; independent experiment 1", "value": 79.2, "unit": "%"}, {"measurement": "inhibition at 10 µM", "setting": "[8]; independent experiment 2", "value": 82.8, "unit": "%"}, {"measurement": "inhibition at 10 µM", "setting": "[9]; average of experiments", "value": 74.8, "unit": "%"}, {"measurement": "inhibition at 10 µM", "setting": "[9]; independent experiment 1", "value": 62.1, "unit": "%"}, {"measurement": "inhibition at 10 µM", "setting": "[9]; independent experiment 2", "value": 87.4, "unit": "%"}, {"measurement": "IC50", "setting": "[10]; CDK10/L2 IC50 (nM), average (± SEM where n=3)", "value": 520, "unit": "nM"}, {"measurement": "IC50", "setting": "[10]; CDK10/L2 IC50 (nM), independent experiment 1", "value": 530, "unit": "nM"}, {"measurement": "IC50", "setting": "[10]; CDK10/L2 IC50 (nM), independent experiment 2", "value": 520, "unit": "nM"}, {"measurement": "IC50", "setting": "[10]; IC50 for CDK/cyclin complexes, CDK10/L2, live HEK-293, 2 h, mean ± S.E.M. (n=3) or mean (n=2)", "value": 520, "unit": "nM"}, {"measurement": "inhibition at 10 µM", "setting": "[10]; average of experiments", "value": 88, "unit": "%"}, {"measurement": "inhibition at 10 µM", "setting": "[10]; independent experiment 1", "value": 81.7, "unit": "%"}, {"measurement": "inhibition at 10 µM", "setting": "[10]; independent experiment 2", "value": 94.4, "unit": "%"}]}]}
